Converted amounts (≈) assume the structure as drawn. Where a name gives a salt, the structure may show the parent alone.
Legend:
[1] = test system: Bacillus subtilis (ATCC 6633); format: cell-based; conditions: ATCC6633, read-out: Minimal inhibitory concentration
Protocol: (§1) The bacteriostatic activity of 20,798 R.P. was determined by one of the dilution methods usually employed for this purpose. For each microorganism the minimum concentration of antibiotic, which under specified conditions inhibits all visible development of the microorganism in an appropriate nutrient medium, was determined. The results of the various determinations are collected in Table III below, in which the minimum bacteriostatic concentrations are expressed in micrograms of substance per cc. of test medium.

[2] = test system: Diplococcus pneumoniae (strain Til, Institut Pasteur); format: cell-based; conditions: Streptococcus pneumoniae, read-out: Minimal inhibitory concentration
Protocol: as §1

[3] = test system: Klebsiella pneumoniae ATCC 10,031; format: cell-based; conditions: read-out: Minimal inhibitory concentration
Protocol: as §1

[4] = test system: Lactobacillus casei ATCC 7469; format: cell-based; conditions: Lacticaseibacillus casei, ATCC7469, read-out: Minimal inhibitory concentration
Protocol: as §1

[5] = test system: Mycobacterium para-smegmatis (A 75, Lausanne); format: cell-based; conditions: read-out: Minimal inhibitory concentration
Protocol: as §1

[6] = test system: Mycobacterium phlei (Bacteriological Institute of Lyon); format: cell-based; conditions: Mycolicibacterium phlei, read-out: Minimal inhibitory concentration
Protocol: as §1

[7] = test system: Mycobacterium smegmatis ATCC 607; format: cell-based; conditions: Mycolicibacterium smegmatis, ATCC607, read-out: Minimal inhibitory concentration
Protocol: as §1

[8] = test system: Neisseria catarrhalis A 152; format: cell-based; conditions: A152, read-out: Minimal inhibitory concentration
Protocol: as §1

[9] = test system: Pasteurella multocida (A 125, Institut Pasteur); format: cell-based; conditions: read-out: Minimal inhibitory concentration
Protocol: as §1

Proteus X 19 = format: cell-based; conditions: read-out: Minimal inhibitory concentration
Protocol: as §1

[10] = test system: Salmonella paratyphi A (Lacasse, Institut Pasteur); format: cell-based; conditions: Salmonella enterica, read-out: Minimal inhibitory concentration
Protocol: as §1

Sarcina lutea ATCC 9341 = format: cell-based; conditions: Micrococcus luteus, ATCC9341, read-out: Minimal inhibitory concentration
Protocol: as §1

[11] = test system: Staphylococcus aureus, strain 209 P ATCC 6538 P; format: cell-based; conditions: ATCC6538; Staphylococcus aureus 209 P ATCC 6538 P; read-out: Minimal inhibitory concentration
Protocol: as §1

[12] = test system: Streptococcus faecalis (Faculty of Pharmacy, Paris); format: cell-based; conditions: Enterococcus faecalis, read-out: Minimal inhibitory concentration
Protocol: as §1

[13] = test system: Streptococcus pyogenes hemolyticus (strain Dig. 7, Institut Pasteur); format: cell-based; conditions: read-out: Minimal inhibitory concentration
Protocol: as §1

[14] = test system: Brucella bronchiseptica (CN 387 - Wellcome Institute); experiment: microbe, parasite or virus in culture; format: cell-based; conditions: Bordetella bronchiseptica, read-out: Minimal inhibitory concentration
toxicity on mice (LD50) = conditions: mouse, in vivo, ip, intra-peritoneal (i.p.), read-out: 50% lethal dose (LD50)
Protocol: The toxicity of 20,798 R.P. has been studied principally on mice. The 50% lethal dose or LD50 was determined intra-peritoneally: […]

[15] = stability to acid treatment of the fermentation broth; format: physicochemical; conditions: 10° to 75° C., 48 hours to 30 minutes
Protocol: When desired, the fermentation broth can, before the extraction procedures, be treated with an acid at a temperature between 10° and 75° C. for a period of from 48 hours to 30 minutes, the length of time varying inversely with the temperature, so as to enrich the antibiotic 9865 R.P. with daunorubicin. […] For acidification of the fermentation broth inorganic acids (hydrochloric, phosphoric or sulphuric acid) or organic acids (acetic or oxalic acid etc.) are suitable at various concentrations, but preferably hydrochloric acid or oxalic acid is used at concentrations of between 0.01N and 1N. The hydrolysis is preferably carried out for a period of from 15 hours to 1 hour at a temperature of from 20° C. to 50° C., the length of time varying inversely with the temperature.

sarcoma 180 = experiment: anti-tumor activity in mice, sarcoma 180
leucaemia L 1210 = experiment: anti-tumor activity in mice, leucaemia L 1210
solubility = format: physicochemical

COc1cccc2c1C(=O)c1c(O)c3c(c(O)c1C2=O)CC(O)(C(C)O)CC3OC1CC(N)C(O)C(C)O1 (stereo not shown) [20,798 R.P.]
MIC [1]: 21 µg/mL (≈ 39.7 µM)
MIC [2]: 6.1 µg/mL (≈ 11.5 µM)
MIC [3]: > 330 µg/mL
MIC [4]: 24 µg/mL (≈ 45.3 µM)
MIC [5]: 3.1 µg/mL (≈ 5.85 µM)
MIC [6]: 3.1 µg/mL (≈ 5.85 µM)
MIC [7]: 5.8 µg/mL (≈ 11 µM)
MIC [8]: > 28 µg/mL
MIC [9]: 14 µg/mL (≈ 26.4 µM)
MIC (Proteus X 19): > 83 µg/mL
MIC [10]: > 83 µg/mL
MIC (Sarcina lutea ATCC 9341): 12 µg/mL (≈ 22.7 µM)
MIC [11]: 100 µg/mL (≈ 189 µM)
MIC [12]: > 33 µg/mL
MIC [13]: 11 µg/mL (≈ 20.8 µM)
MIC [14]: 170 µg/mL (≈ 321 µM)
LD50 (toxicity on mice (LD50)): 6.5 mg/kg
hydrolysis under acid treatment [15]: not hydrolysed
ED50 (sarcoma 180; Mus musculus, Sarcoma-180, sc, read-out: 50% active dose (AD50)): 0.75 mg/kg
anti-tumor activity (sarcoma 180; graftable tumours of mice, solid form of sarcoma 180): particularly active
ED50 (leucaemia L 1210; Mus musculus, L1210, ip, read-out: 50% active dose (AD50)): 0.8 mg/kg
anti-tumor activity (leucaemia L 1210; graftable tumours of mice, leucaemia L 1210): particularly active

COc1cccc2c1C(=O)c1c(O)c3c(c(O)c1C2=O)CC(O)(C(C)O)CC3O (stereo not shown) [aglycone of 20,798 R.P.]
Solubility (solubility; benzene): very sparingly soluble
Solubility (solubility; chloroform): sparingly soluble
Solubility (solubility; diethyl ether): practically insoluble
Solubility (solubility; ethyl acetate): sparingly soluble
Solubility (solubility; hexane): practically insoluble
Solubility (solubility; methanol): sparingly soluble
Solubility (solubility; water): practically insoluble

COc1cccc2c1C(=O)c1c(O)c3c(c(O)c1C2=O)CC(O)(C(C)O)CC3OC1CC(N)C(O)C(C)O1 (stereo not shown) [20,798 R.P. hydrochloride]
Solubility (solubility; alcohols): soluble
Solubility (solubility; benzene): practically insoluble
Solubility (solubility; chloroform): sparingly soluble
Solubility (solubility; diethyl ether): practically insoluble
Solubility (solubility; water): soluble

— US3987028A, “Antibiotic 20,798 R.P” (Rhone-Poulenc S.A., priority 1968, dated 1976)
